Read-outs that look alike come from different tables or passages of the source.
Assays:
[1] = tested on: S1-B1-20 Pgp-overexpressing cells; assay: In vitro cytotoxicity assay (sulforhodamine B staining); format: cell-based, human; conditions: for IC50: Homo sapiens, S1B1-20, 96 h; for RR (relative resistance): S1-B1-20 cells relative to S1 parental; for DMF +0.5 μM GF120918 / DMF +1.0 μM GF120918 / relative resistance: S1-B1-20 cells; for DMF +0.5 μM GF120918: IC50 without / IC50 with 0.5 μM GF120918; for DMF +1.0 μM GF120918: IC50 without / IC50 with 1.0 μM GF120918
Experimental: (§1) Reversal of resistance was determined in cytotoxicity assays using the sulforhodamine staining (Skehan et al. (1990) J. Natl. […] Briefly, cells were harvested and seeded at a density of 2000 cells/well for the colon cancer lines and 4000 cells/well for the breast cancer cell lines in flat-bottom 96-well plates. The cells were incubated for 24 h at 37° C. to allow attachment prior to addition of the drugs. […] Each concentration was tested in triplicate and the controls were done in replicates of eight. Results are representative of from three to six experiments. […] After incubation, the cells were fixed in TCA and stained with sulforhodamine B (SRB) solution (0.4% wt/vol in 1% acetic acid) (Sigma Chemical, St Louis, Mo.). Optical densities were read on a Bio-Rad plate reader (Hercules, Calif.) at an absorbance of 540 nm.

S1 parental cells = assay: as above; format: cell-based, human; conditions: for IC50: Homo sapiens; for DMF +0.5 μM GF120918 / DMF +1.0 μM GF120918: S1 cells; for DMF +0.5 μM GF120918: IC50 without / IC50 with 0.5 μM GF120918; for DMF +1.0 μM GF120918: IC50 without / IC50 with 1.0 μM GF120918
Experimental: as §1

MCF-7 parental cells = assay: as above; format: cell-based, human; conditions: for IC50: Homo sapiens, MCF7, 96 h
Experimental: as §1

[2] = tested on: S1-M1-80 cells expressing MXR; assay: as above; format: cell-based, human; conditions: for IC50: Homo sapiens, S1-M1-80, 96 h; for RR (relative resistance): S1-M1-80 cells relative to S1 parental; for DMF +0.5 μM GF120918: IC50 without / IC50 with 0.5 μM GF120918; for DMF +1.0 μM GF120918: IC50 without / IC50 with 1.0 μM GF120918
Experimental: as §1

MXR (S1-M1-80 cells) = molecular target: T1, MXR (S1-M1-80 cells) (Homo sapiens, UniProt Q9UNQ0, R482G); assay: Rhodamine efflux assay (flow cytometry); format: cell-based
T1 construct: express high levels of a mitoxantrone transporter (Miyake et al. (1999) Cancer Res.59: 8-13); endogenous in cells; host or cells: S1-M1-80 (mitoxantrone-selected subline of S1 colon carcinoma cells)
T1 sequence (Q9UNQ0 1-655 R482G): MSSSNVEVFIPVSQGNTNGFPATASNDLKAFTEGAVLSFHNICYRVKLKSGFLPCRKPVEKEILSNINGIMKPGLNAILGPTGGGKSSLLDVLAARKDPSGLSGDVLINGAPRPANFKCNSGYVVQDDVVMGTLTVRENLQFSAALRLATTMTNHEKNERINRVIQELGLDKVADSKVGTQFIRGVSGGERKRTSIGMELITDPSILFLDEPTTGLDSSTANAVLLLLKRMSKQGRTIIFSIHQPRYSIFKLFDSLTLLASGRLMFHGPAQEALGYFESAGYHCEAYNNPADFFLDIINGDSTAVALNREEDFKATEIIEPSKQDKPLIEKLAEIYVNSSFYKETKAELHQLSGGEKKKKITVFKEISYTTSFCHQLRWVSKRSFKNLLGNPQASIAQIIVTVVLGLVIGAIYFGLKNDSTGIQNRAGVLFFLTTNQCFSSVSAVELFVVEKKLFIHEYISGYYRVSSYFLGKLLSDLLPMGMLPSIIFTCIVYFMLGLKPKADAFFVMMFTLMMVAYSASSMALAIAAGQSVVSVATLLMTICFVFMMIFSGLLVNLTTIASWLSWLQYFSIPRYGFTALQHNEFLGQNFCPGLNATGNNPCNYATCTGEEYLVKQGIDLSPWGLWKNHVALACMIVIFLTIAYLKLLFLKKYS
Experimental: To provide confirmation, rhodamine efflux assays were performed. […] The results are depicted in FIG. 2.

[3] = tested on: S1 parental cells (low endogenous level of Pgp); assay: Rhodamine efflux assay (flow cytometry); format: cell-based, human
Experimental: The rhodamine and calcein efflux assays were performed as previously described with minor modifications (Lee et al. (1994) Mol. Pharmacol. 46: 627-638; Versantvoort et al. (1995) Int. J. Cancer 63: 855-862.) Suspensions of logarithmic phase cells were obtained from tissue culture flasks by trypsinization and transferred into round-bottom 96-well plates. […] After the efflux period, the cells were washed with DPBS and placed on ice. A FACSort flow cytometer (Becton Dickinson, San Jose, Calif.) with a 488-nm argon laser was used to analyze the samples. Rhodamine 123 or calcein fluorescence was collected after a 530 nm bandpass filter. A minimum of 10,000 events was collected per sample and the samples were gated on forward scatter versus side scatter to exclude clumps and debris; dead cells were excluded based on propidium iodide staining.
To provide confirmation, rhodamine efflux assays were performed. […] After an accumulation and efflux period, rhodamine fluorescence was quantitated by flow cytometric analysis. The results are depicted in FIG. 2. […] PSC 833, a cyclosporin-D analog, was used as a positive control for Pgp antagonism.

[4] = read-out: IC50 +0.5 μM GF120918
[5] = read-out: IC50 +1.0 μM GF120918
[6] = 96 h, read-out: IC50 +0.5 μM GF120918
[7] = 96 h, read-out: IC50 +1.0 μM GF120918
[8] = S1-M1-80 cells, chemotherapy drug without GF120918, 96 h, read-out: IC50
[9] = read-out: IC50 +0.5 μM GF120918, S1-M1-80 cells, with 0.5 μM GF120918, 96 h

Structure (SMILES)	IC50 [1, 4] [nM]	IC50 [1, 5] [nM]	IC50 ([1]; read-out: IC50) [nM]	RR (relative resistance) [1]	DMF +0.5 μM GF120918 [1]	DMF +1.0 μM GF120918 [1]	IC50 (S1 parental cells; [6]) [nM]	IC50 (S1 parental cells; [7]) [nM]	IC50 (S1 parental cells; 96 h, read-out: IC50) [nM]	DMF +0.5 μM GF120918 (S1 parental cells)	DMF +1.0 μM GF120918 (S1 parental cells)	IC50 [2, 8] [nM]	IC50 [2, 9] [nM]	RR (relative resistance) [2]	DMF +0.5 μM GF120918 ([2]; S1-M1-80 cells)	DMF +1.0 μM GF120918 ([2]; S1-M1-80 cells)	relative resistance [1] [fold]	relative resistance ([2]; S1-M1-80 cells) [fold]	other results
O=C1c2c(O)ccc(O)c2C(=O)c2c(NCCNCCO)ccc(NCCNCCO)c21 [Mitoxantrone]	15 ± 5.6	13 ± 6.6	410 ± 610	66	27	31	5.3 ± 4.3	5.2 ± 4.4	6.2 ± 4.7	1.2	1.2	222000 ± 101000	1570 ± 950	35806	141	1850	–	–	IC50 (MCF-7 parental cells; [4]): 5.7 ± 7.3 nM; IC50 (MCF-7 parental cells; [5]): 5.6 ± 8.1 nM; IC50 (MCF-7 parental cells; read-out: IC50): 25 ± 19 nM; DMF (Dose Modifying Factor) +0.5 μM GF120918 (MCF-7 parental cells; MCF-7 cells, IC50 without / IC50 with 0.5 μM GF120918): 4.4; DMF +1.0 μM GF120918 (MCF-7 parental cells; MCF-7 cells, IC50 without / IC50 with 1.0 μM GF120918): 4.4; IC50 ([2]; read-out: IC50 +1.0 μM GF120918, S1-M1-80 cells, with 1.0 μM GF120918, 96 h): 120 ± 110 nM
C/C=C/C[C@@H](C)C(=O)[C@H]1C(=O)N[C@@H](C(C)C)C(=O)N(C)CC(=O)N(C)[C@@H](CC(C)C)C(=O)N[C@@H](C(C)C)C(=O)N(C)[C@@H](CC(C)C)C(=O)N[C@@H](C)C(=O)N[C@H](C)C(=O)N(C)[C@@H](CC(C)C)C(=O)N(C)[C@@H](CC(C)C)C(=O)N(C)[C@@H](C(C)C)C(=O)N1C [PSC 833]	–	–	–	–	–	–	–	–	–	–	–	–	–	–	–	–	–	–	antagonism of MXR (MXR (S1-M1-80 cells)): not an effective antagonist for MXR; effect on rhodamine accumulation and efflux [3]: small increase in rhodamine accumulation and a decrease in efflux
CC(=O)O[C@H]1C(=O)[C@@]2(C)[C@H]([C@H](OC(=O)c3ccccc3)[C@]3(O)C[C@H](OC(=O)[C@H](O)[C@@H](NC(=O)c4ccccc4)c4ccccc4)C(C)=C1C3(C)C)[C@]1(OC(C)=O)CO[C@@H]1C[C@@H]2O [paclitaxel]	–	–	–	–	–	–	–	–	–	–	–	–	–	–	–	–	200	1.5	–
CC[C@@]1(O)C(=O)OCc2c1cc1n(c2=O)Cc2cc3c(CN(C)C)c(O)ccc3nc2-1 [topotecan]	40	27 ± 5	160 ± 50	4.4	4	5.9	34	25 ± 7	36 ± 8.5	1.0	1.4	12000 ± 5000	2000	334	6	23	4.4	334	IC50 (S1 parental cells; read-out: IC50): 36 nM

— patent US6521635B1, “Inhibition of MXR transport by acridine derivatives” (priority 2000, dated 2003)
